Values quoted from earlier work as cited in US20060182688A1, “Metronidazole-based tinted topical pharmaceutical compositions” (GALDERMA S.A., priority 2003, published 2006).

Tested on: rosacea

Cc1ncc([N+](=O)[O-])n1CCO [metronidazole, 1-(2-hydroxyethyl)-2-methyl-5-nitroimidazole]
effect on erythema (200 mg twice a day): ineffective
effect on the papules and pustules of rosacea (200 mg twice a day): had therapeutic effects
action on the clinical signs such as erythema, telangiectasia or redness (rosacea): no action
effect against the papules and pustules (rosacea): effective
effect on the inflammatory lesions (rosacea): effectively improves
